pKd: −log10 of the molar value.
Molecular target: T1, IGFBP3 (Homo sapiens, UniProt P17936)
T1 construct: protein immobilised on CM5 chip
Assay: SPR (Biacore T200, CM5 chip, immobilised IGFBP3)
Format: binding

T1 sequence (P17936 28-291): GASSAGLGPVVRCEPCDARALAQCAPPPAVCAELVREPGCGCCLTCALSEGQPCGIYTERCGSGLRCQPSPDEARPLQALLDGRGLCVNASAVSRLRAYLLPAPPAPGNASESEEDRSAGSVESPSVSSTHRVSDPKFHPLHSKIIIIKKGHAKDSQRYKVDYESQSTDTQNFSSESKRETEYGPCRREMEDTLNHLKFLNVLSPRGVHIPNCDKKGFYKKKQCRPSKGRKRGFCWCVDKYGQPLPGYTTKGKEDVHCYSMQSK

Work on COc1ccc(-c2oc3c(CC=C(C)C)c(O[C@@H]4O[C@H](CO)[C@@H](O)[C@H](O)[C@H]4O)cc(O)c3c(=O)c2O[C@@H]2O[C@@H](C)[C@H](O)[C@@H](O)[C@H]2O)cc1 [Icariin] yielded a pKd of 3.88.

Source: publication PMC12226389, “Icariin interacts with IGFBP3 to alleviate diabetic cataract through PI3K/AKT signaling pathway” (iScience, 2025)
